Laboratory results reported in article PMC7593906, “Synthesis and HPLC-ECD Study of Cytostatic Condensed O,N-Heterocycles Obtained from 3-Aminoflavanones” (Biomolecules, 2020).

Legend:
[1] = tested on: A2780 ovarian carcinoma cell line; assay: MTT assay, viability of A2780 cells; format: cell-based, human; details: for antiproliferative activity at 50 μM concentration: A2780, 50 μM, monitored at 24 and 72 h (Figure S262); for IC50: MTT assay, cells treated daily for 3 days
Protocol: (§1) The number of viable cells was indirectly determined by measuring the conversion of the tetrazolium salt MTT (3-{4,5-dimethilthiasol-2-il}-2,5-diphenyltetrasolium bromide, Sigma-Aldrich) to formazan by mitochondrial dehydrogenases. Cells were plated in 96-well multi-titer plates (10,000 cells per well density) in quadruplicates and were cultured for 3 days and treated by the compounds daily. Negative control group was treated with equal amount of vehicle solvent (DMSO) and positive control group was treated with 1 µg/mL doxorubicin. Cells were then incubated with 5 mg/mL MTT for 3 h, precipitated formazan crystals were dissolved in acidic isopropanol (10% 1 M HCl in isopropanol supplemented with 10% Triton X 100), and concentration of formazan was assessed colorimetrical way measuring absorbance at 565 nm.
(§2) Logistic dose-response curves were fitted using the equation y = A2 + (A1-A2)/(1 + (x/x0)^p) where the parameters are: A1: initial value (ymin), A2: final value (ymax), x0: center (EC/IC50), and p is the calculated power. Fittings were carried out and parameters were calculated using Origin 8.6 (OriginLab Corporation, Northampton, MA, USA).

[2] = tested on: WM35 melanoma cell line; assay: MTT assay, viability of WM35 cells; format: cell-based, human; details: for antiproliferative activity at 50 μM concentration: WM35, 50 μM, monitored at 24 and 72 h (Figure S263); for EC20 (logistic fit) / EC80 (logistic fit): WM35, MTT dose-response fit, treated daily for 3 days, SI figures; for IC50: MTT assay, cells treated daily for 3 days
Protocol: as §1, §2

[3] = tested on: non-cancerous HaCaT human keratinocytes; assay: MTT assay, viability of HaCaT keratinocytes; format: cell-based; set-up: EC20 (logistic fit) / EC80 (logistic fit): unit not given here; details: for EC20 (logistic fit) / EC80 (logistic fit): MTT dose-response fit, treated daily for 3 days, SI figures; for IC50: MTT assay, cells treated daily for 3 days
Protocol: as §1, §2

[4] = tested on: acute myeloid leukemia cells; set-up: method as in PMID 31744877; details: across 30 human cell lines; read-out: EC50, viability of acute myeloid leukemia cells; cited from earlier work
[5] = tested on: chemoresistant forms of prostate cancer; set-up: method as in PMID 23423838; details: cited from earlier work
[6] = tested on: A2780 ovarian carcinoma cells; assay: MitoProbe DilC1(5) assay, mitochondrial membrane potential; format: cell-based, human; details: A2780, 24 hrs incubation
Source text: (§3) 2.13. MitoProbe^TM DilC1(5) Assay and SYTOX Green Labeling
(§4) Decrease in mitochondrial membrane potential is an early hallmark of apoptosis and the disruption of the plasma membrane integrity is characteristic for cellular necrosis. These events were investigated simultaneously using MitoProbe^TM DilC1(5) assay kit and SYTOX green (both from Molecular Probes/ThermoiFisher) staining, respectively. DilC1(5) (1,1′,3,3,3′,3′-hexamethylindodicarbo - cyanine iodide) is a fluorescent cyanine dye which penetrates cytoplasm with intact membrane and accumulates primarily in mitochondria depending on the mitochondrial membrane potential. […] SYTOX Green is a nucleic acid stain impermeant to live cells with intact plasma membrane, but it penetrates the compromised membrane of necrotic, dead cells resulting in a bright green fluorescent nuclear staining.
(§5) Cells were plated in 96-well multi-titer plates (10,000 cells per well density) in quadruplicates and were incubated for 24 h with various concentrations of rac-19g. […] Finally, the excess of the dyes was removed, cells were gently washed in PBS, and fluorescence of DilC1(5) and SYTOX Green was measured at 630/680 nm and 490/520 nm (excitation/emission), respectively, using a FlexStation 3 (Molecular Devices) multimodal microplate reader.

[7] = tested on: A2780 ovarian carcinoma cells; assay: SYTOX Green labeling, plasma membrane integrity; format: cell-based; details: A2780, 24 hrs incubation
Source text: as §3, §4, §5

[8] = tested on: A2780 ovarian carcinoma cells; assay: CyQUANT cell proliferation assay, total DNA content; format: cell-based, human; details: A2780, 24 hrs incubation
Protocol: 2.14. CyQUANT® Cell Proliferation Assay
CyQUANT assay assesses the cellular proliferation indirectly by directly determining the DNA content in a cell population using CyQUANT fluorescent dye. […] Therefore, it is suitable to asses DNA synthesis associated with cellular proliferation. Cells were plated in 96-well multi-titer plates (10,000 cells per well density) in quadruplicates and were incubated for 24 h with various concentrations of rac-19g, then assayed for cellular proliferation following the manufacturer’s protocol. Briefly, supernatants were gently removed and the plate was snap frozen and stored at −70 °C. Then plate was thawed, cells were lysed and incubated with CyQUANT dye. The excess of the dye was removed and fluorescence was measured at 490/520 nm (excitation/emission) using a FlexStation 3 (Molecular Devices) multimodal microplate reader.

[9] = A2780, MTT dose-response fit, treated daily for 3 days, SI figures

Compound	antiproliferative activity at 50 μM concentration [1]	antiproliferative activity at 50 μM concentration [2]	EC20 (logistic fit) [1, 9]	EC20 (logistic fit) [2]	EC80 (logistic fit) [2]	EC20 (logistic fit) ([3]; HaCaT)	EC80 (logistic fit) ([3]; HaCaT)	further results
COc1ccc(C2Oc3ccccc3-c3sc(C)nc32)cc1 (racemic) [rac-3b, (±)-2-methyl-4-(4-methoxyphenyl)-4H-chromeno[3,4-d][1,3]thiazole]	much weaker activities	much weaker activities	–	–	–	–	–	–
COc1ccc([C@@H]2Oc3ccccc3[C@@H]3OCCN[C@@H]23)cc1.Cl (racemic) [rac-(4aS*,5R*,10bR*)-2b, (±)-(4aR*,5S*,10bS*)-5-(4-methoxyphenyl)-2,3,4,4a,5,10b-hexahydrochromeno[4,3-b][1,4]oxazine hydrochloride]	the most active	the most active	6,72446 mM	26,114 µM	43,39258 µM	7.569	38.76	IC50 [1]: 10.4 ± 2.71 µM; IC50 [3]: 17.1 ± 7.95 µM
COc1cc(OC)cc([C@@H]2Oc3ccccc3[C@H]3OCCN[C@H]32)c1 (racemic) [rac-(4aS*,5R*,10bS*)-2d, (±)-(4aR*,5S*,10bR*)-5-(3,5-dimethoxyphenyl)-2,3,4,4a,5,10b-hexahydrochromeno[4,3-b][1,4]oxazine]	the most active	the most active	10,79361 mM	14,15843 µM	53,361 µM	11.28	81.84	IC50 [3]: 30.4 ± 49.8 µM
CCOC(=O)c1c(C)[nH]c2c1-c1ccccc1OC2c1ccc(OC)c(OC)c1 (racemic) [rac-4c, (±)-ethyl 2-methyl-4-(3,4-dimethoxyphenyl)-3,4-dihydrochromeno[3,4-b]pyrrole-1-carboxylate]	–	–	2,14809 mM	1,55024 µM	43,44318 µM	0.9397	4.167	IC50 [1]: 5.34 ± 0.88 µM; IC50 [2]: 8.21 ± 4.38 µM; IC50 [3]: 1.97 ± 0.29 µM
COc1cc(C2Oc3ccccc3-c3sc(C)nc32)cc(OC)c1OC (racemic) [rac-3e, (±)-2-methyl-4-(3,4,5-trimethoxyphenyl)-4H-chromeno[3,4-d][1,3]thiazole]	–	–	1,58958 mM	0,11527 µM	39,68998 µM	3.395	11.45	IC50 ([1]; Homo sapiens, A2780, 72 h): 2.74 µM; IC50 [1]: 2.72 ± 0.48 µM; IC50 ([2]; Homo sapiens, WM35, 72 h): 2.14 ± 1.85 µM; IC50 ([3]; Homo sapiens, HaCaT, 72 h): 6.23 ± 1.25 µM; melting point: 113 to 115 °C
Cc1nc2c(s1)-c1ccccc1OC2c1ccc2ccccc2c1 (racemic) [rac-3g, (±)-2-methyl-4-(naphthalen-2-yl)-4H-chromeno[3,4-d][1,3]thiazole]	much weaker activities	much weaker activities	–	–	–	–	–	melting point: 129 to 130 °C
CCCCCCCCCCCCCCCC(O)C(CO)NC(=O)CCl (stereo not shown) [SACLAC]	–	–	–	–	–	–	–	EC50 [4]: ~3 µM; growth of chemoresistant forms of prostate cancer [5]: inhibit the growth
COc1cccc2c1C(=O)c1c(O)c3c(c(O)c1C2=O)C[C@@](O)(C(=O)CO)C[C@@H]3O[C@H]1C[C@H](N)[C@H](O)[C@H](C)O1 [Doxorubicin, reference compound]	–	–	–	–	–	–	–	IC50 ([1]; Homo sapiens, A2780, 72 h): 0.07 µM; IC50 ([2]; Homo sapiens, WM35, 72 h): 0.14 µM; IC50 ([3]; Homo sapiens, HaCaT, 72 h): 0.03 µM
CCCCCCCCCCCCCCCC(O)C(CO)NC(=O)CBr (stereo not shown) [SABRAC]	–	–	–	–	–	–	–	EC50 [4]: ~3 µM; growth of chemoresistant forms of prostate cancer [5]: inhibit the growth
Cc1nc2c(s1)-c1ccccc1OC2c1ccccc1 (racemic) [rac-3a, (±)-2-methyl-4-phenyl-4H-chromeno[3,4-d][1,3]thiazole]	much weaker activities	much weaker activities	–	–	–	–	–	–
O=C(CCl)N[C@@H]1[C@@H](O)c2ccccc2O[C@H]1c1ccc2ccccc2c1 (racemic) [rac-19g, (±)-2-chloro-N-[(2R*,3S*,4R*)-4-Hydroxy-2-(naphthalen-2-yl)-3,4-dihydro-2H-chromen-3-yl]acetamide]	–	–	0,01488 mM	1,26314 µM	9,68285 µM	–	–	EC50 ([1]; Homo sapiens, 72 h, A2780, MTT dose-response fit, treated daily for 3 days, SI figures, read-out: EC50 (x0 of logistic fit) (converted)): 0.151 µM; IC50 ([1]; Homo sapiens, A2780, 72 h): 0.15 ± 0.14 µM; IC50 ([2]; Homo sapiens, WM35, 72 h): 3.5 ± 1.94 µM; IC50 ([3]; Homo sapiens, HaCaT, 72 h): 6.06 ± 3.3 µM; mitochondrial membrane potential [DilC1(5) staining] [6]: decreased the mitochondrial membrane potential; integrity of the plasma membrane (SYTOX Green staining) [7]: intact (negative SYTOX Green staining); proliferation-associated DNA synthesis (CyQUANT Assay) [8]: inhibited proliferation-associated DNA synthesis
COc1ccc(C2Oc3ccccc3-c3sc(C)nc32)cc1OC (racemic) [rac-3c, (±)-2-methyl-4-(3,4-dimethoxyphenyl)-4H-chromeno[3,4-d][1,3]thiazole]	much weaker activities	much weaker activities	–	–	–	–	–	–
CCOC(=O)c1c(C)[nH]c2c1-c1ccccc1OC2c1ccc2ccccc2c1 (racemic) [rac-4g, (±)-ethyl 2-methyl-4-(naphthalen-2-yl)-3,4-dihydrochromeno[3,4-b]pyrrole-1-carboxylate]	–	–	–	–	–	–	–	melting point: 149 to 151 °C
CCOC(=O)c1c(C)[nH]c2c1-c1ccccc1OC2c1ccc(OC)cc1 (racemic) [rac-4b, (±)-ethyl 2-methyl-4-(4-methoxyphenyl)-3,4-dihydrochromeno[3,4-b]pyrrole-1-carboxylate]	–	–	1,99005 mM	1,2746 µM	26,63177 µM	2.492	36.73	IC50 [1]: 4.84 ± 1.38 µM; IC50 [2]: 5.83 ± 1.78 µM; IC50 [3]: 9.57 ± 8.77 µM
